Data: patent US10125098B2, “Therapeutic compounds and methods of use thereof” (GENENTECH, INC., priority 2014, dated 2018)
Read-outs that look alike come from different tables or passages of the source.

Assays:
hNav1.7 = biological target: T1, hNav1.7 (Homo sapiens, UniProt Q15858); assay: Tritiated compound binding (LBA) to membranes from cells expressing hNav1.7 and the β1 subunit, competitive binding; conditions: competitive binding vs 100 pM [3H]compound, 18 h, room temperature, membranes with hNav1.7 and β1 subunit
T1 construct: expressed in transfected cells
T1 sequence (Q15858 1-1977 isoform Q15858-3): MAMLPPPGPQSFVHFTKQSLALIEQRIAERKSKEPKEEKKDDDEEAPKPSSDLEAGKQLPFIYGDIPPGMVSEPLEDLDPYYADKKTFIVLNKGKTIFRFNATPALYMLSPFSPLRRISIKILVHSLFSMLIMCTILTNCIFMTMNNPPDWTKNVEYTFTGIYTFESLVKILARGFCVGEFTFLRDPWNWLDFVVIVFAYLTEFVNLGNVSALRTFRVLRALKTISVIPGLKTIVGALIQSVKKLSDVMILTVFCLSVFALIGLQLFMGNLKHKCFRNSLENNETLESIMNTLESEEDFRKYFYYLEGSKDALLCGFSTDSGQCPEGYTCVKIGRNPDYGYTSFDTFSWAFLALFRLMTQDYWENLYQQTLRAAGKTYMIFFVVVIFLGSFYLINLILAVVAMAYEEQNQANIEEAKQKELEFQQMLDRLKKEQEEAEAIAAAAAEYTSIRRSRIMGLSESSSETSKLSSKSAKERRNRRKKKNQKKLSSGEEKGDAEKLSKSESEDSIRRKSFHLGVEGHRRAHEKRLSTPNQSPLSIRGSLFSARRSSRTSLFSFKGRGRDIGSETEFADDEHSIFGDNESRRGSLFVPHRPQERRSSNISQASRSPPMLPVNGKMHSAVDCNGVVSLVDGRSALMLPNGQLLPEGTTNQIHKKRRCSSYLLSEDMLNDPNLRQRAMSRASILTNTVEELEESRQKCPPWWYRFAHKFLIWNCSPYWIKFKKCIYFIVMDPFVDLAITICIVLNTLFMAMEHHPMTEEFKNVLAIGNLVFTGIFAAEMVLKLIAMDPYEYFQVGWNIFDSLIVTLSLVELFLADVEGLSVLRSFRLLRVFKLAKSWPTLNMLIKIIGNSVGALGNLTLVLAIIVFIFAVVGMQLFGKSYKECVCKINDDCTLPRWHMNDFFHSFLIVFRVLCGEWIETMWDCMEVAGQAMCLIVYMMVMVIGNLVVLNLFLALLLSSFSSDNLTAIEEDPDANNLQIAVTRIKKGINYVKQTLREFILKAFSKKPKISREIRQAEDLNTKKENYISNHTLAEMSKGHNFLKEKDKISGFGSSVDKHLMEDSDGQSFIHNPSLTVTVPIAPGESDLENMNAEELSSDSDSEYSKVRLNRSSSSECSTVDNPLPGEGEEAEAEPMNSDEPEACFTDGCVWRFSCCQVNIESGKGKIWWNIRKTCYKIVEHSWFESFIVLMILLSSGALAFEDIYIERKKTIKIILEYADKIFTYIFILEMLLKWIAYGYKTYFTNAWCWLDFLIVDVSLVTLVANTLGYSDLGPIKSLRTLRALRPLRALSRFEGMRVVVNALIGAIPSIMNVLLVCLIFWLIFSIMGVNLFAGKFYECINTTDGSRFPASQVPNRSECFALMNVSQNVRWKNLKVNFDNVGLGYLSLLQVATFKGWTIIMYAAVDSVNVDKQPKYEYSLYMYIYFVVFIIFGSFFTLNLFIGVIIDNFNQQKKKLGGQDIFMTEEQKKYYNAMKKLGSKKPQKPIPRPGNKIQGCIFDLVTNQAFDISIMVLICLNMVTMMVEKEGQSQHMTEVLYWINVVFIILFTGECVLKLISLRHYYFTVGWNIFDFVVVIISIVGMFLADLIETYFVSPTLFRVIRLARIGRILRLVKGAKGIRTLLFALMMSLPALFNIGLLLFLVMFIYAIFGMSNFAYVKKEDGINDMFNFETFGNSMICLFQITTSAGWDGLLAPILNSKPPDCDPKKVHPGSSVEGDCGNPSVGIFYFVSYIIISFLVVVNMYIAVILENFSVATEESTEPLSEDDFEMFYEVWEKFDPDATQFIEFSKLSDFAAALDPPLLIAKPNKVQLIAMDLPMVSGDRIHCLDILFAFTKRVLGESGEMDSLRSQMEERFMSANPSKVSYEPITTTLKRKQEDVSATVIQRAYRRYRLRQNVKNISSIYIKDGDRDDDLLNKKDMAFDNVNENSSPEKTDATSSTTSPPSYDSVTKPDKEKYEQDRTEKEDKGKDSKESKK
T1 sequence (Q07699 19-218 partner): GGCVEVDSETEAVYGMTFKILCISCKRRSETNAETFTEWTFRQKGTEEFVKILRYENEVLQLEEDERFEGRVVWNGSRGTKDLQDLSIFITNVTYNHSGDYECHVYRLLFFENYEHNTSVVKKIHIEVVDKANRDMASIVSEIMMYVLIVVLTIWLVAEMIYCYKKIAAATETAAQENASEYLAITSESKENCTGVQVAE
Summary of the method: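 Competitive displacement of 100 pM [3H]compound (tritiated methyl analogue of formula (I)) from hNav1.7/β1 membranes, 18 h at room temperature in NaCl/Tris pH 7.4 buffer containing 0.01% BSA. 1 μM unlabeled compound set non-specific binding. Bound label quantified by scintillation after filtration; 4-parameter fit gave IC50.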

human NaV1.7 = biological target: T2, human NaV1.7 (Homo sapiens, UniProt Q15858); assay: Patch voltage clamp electrophysiology assay (EP), NaV1.7; type: cell-based; conditions: HEK-293 cells stably expressing NaV1.7 with β1 subunit; whole-cell patch clamp, membrane potential −60 mV (inactivated state)
T2 construct: permanently transfected with an expression vector containing the full-length cDNA coding for the desired human sodium channel α-subunit; expressed in transfected cells; host or cells: HEK-293
T2 sequence (Q15858 1-1977 isoform Q15858-3): as the sequence (Q15858 1-1977 isoform Q15858-3) above
T2 sequence (Q07699 19-218 partner): as the sequence (Q07699 19-218 partner) above
Summary of the method: (§1)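 Percent block is the drop in sodium current after compound wash-on, measured by a test pulse following 20 ms at −150 mV from a −60 mV inactivating holding potential.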

NaV1.5 = biological target: T3, NaV1.5 (Homo sapiens, UniProt Q14524); assay: Patch voltage clamp electrophysiology assay (EP), NaV1.5; type: cell-based; conditions: HEK-293 cells stably expressing NaV1.5 with β1 subunit, whole-cell patch clamp, membrane potential −60 mV (inactivated state)
T3 construct: permanently transfected with an expression vector containing the full-length cDNA coding for the desired human sodium channel α-subunit; expressed in transfected cells; host or cells: HEK-293
T3 sequence (Q14524 whole entry): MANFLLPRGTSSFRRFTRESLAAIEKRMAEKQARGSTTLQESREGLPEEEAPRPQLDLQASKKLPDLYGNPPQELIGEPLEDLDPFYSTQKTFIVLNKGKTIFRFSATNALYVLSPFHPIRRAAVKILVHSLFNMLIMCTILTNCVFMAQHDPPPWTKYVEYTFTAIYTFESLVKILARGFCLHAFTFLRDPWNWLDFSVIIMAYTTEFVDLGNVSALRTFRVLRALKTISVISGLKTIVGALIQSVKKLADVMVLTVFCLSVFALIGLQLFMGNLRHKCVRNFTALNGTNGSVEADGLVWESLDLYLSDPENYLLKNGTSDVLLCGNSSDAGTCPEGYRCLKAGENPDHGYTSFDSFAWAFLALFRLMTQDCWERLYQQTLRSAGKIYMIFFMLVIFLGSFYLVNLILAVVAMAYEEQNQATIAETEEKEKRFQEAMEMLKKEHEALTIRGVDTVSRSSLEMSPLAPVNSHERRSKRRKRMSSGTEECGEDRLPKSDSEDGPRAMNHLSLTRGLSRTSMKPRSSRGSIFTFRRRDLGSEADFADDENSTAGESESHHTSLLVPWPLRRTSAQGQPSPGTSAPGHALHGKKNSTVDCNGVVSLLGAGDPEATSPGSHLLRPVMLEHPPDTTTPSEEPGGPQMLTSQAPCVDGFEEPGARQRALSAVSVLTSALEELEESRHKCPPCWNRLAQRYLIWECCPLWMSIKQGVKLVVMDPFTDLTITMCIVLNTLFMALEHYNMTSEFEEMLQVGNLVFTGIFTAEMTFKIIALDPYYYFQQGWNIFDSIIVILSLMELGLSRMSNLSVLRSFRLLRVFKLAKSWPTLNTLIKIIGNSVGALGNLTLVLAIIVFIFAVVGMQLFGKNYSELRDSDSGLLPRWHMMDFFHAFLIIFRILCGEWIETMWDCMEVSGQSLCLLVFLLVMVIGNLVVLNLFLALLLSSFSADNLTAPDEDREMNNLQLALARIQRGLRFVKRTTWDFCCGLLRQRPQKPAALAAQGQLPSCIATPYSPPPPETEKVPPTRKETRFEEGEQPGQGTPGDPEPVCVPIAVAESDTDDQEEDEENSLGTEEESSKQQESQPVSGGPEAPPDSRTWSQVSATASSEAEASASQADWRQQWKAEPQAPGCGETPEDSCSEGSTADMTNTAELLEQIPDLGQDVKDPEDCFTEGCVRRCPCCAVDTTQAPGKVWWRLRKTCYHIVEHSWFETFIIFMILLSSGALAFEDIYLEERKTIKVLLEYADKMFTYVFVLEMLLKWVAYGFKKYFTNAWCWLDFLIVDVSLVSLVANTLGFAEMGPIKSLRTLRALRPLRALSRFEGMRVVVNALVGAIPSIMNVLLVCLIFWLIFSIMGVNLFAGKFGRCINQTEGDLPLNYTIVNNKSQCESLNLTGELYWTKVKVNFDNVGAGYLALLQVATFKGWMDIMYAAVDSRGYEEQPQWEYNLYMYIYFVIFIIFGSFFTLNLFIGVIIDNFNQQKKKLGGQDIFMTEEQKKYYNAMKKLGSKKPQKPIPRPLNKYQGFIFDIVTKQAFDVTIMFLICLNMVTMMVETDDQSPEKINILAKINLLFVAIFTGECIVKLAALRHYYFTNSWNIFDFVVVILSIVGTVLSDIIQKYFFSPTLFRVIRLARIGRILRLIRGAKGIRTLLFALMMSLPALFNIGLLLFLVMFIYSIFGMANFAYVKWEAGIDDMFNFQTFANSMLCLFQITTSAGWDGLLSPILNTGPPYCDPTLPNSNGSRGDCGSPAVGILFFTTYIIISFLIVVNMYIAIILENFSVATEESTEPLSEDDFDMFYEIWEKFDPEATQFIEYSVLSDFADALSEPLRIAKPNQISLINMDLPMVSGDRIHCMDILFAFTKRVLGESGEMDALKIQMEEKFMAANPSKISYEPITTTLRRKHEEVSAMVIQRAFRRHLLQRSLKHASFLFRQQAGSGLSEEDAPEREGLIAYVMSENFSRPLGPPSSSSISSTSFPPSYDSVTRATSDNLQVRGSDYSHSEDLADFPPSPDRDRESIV
Summary of the method: as §1

[1] = human, HEK-293 cells stably expressing human NaV1.5 with β1 subunit, pH 7.4

Structure (SMILES) | IC50 (hNav1.7) | IC50 (human NaV1.7) | IC50 (NaV1.5; read-out: Nav1.5) | IC50 (NaV1.5; [1])
COC[C@@H](c1cc(Cl)cc(Cl)c1)N1CCC(COc2cc(F)c(C(=O)N3C[C@H](F)C[C@H]3C(=O)O)cc2C2CC2)CC1 [Example 131, (2S,4R)-1-(5-cyclopropyl-4-((1-((R)-1-(3,5-dichlorophenyl)-2-methoxyethyl)piperidin-4-yl)methoxy)-2-fluorobenzoyl)-4-fluoropyrrolidine-2-carboxylic acid] | 28 nM | 250 nM | 18000 nM | –
O=C(O)[C@@H]1COC(=O)N1C(=O)c1cc(C2CC2)c(OCC23CC4CC(CC(C4)C2)C3)cc1F [Example 133, (S)-3-(4-(adamantan-1-ylmethoxy)-5-cyclopropyl-2-fluorobenzoyl)-2-oxooxazolidine-4-carboxylic acid] | 1400 nM | 18000 nM | 9400 nM | –
O=C(O)[C@@H]1CCCN1C(=O)c1cc(C2CC2)c(COc2cc(Cl)cc(Cl)c2)s1 [Example 134, (S)-1-(4-cyclopropyl-5-((3,5-dichlorophenoxy)methyl)thiophene-2-carbonyl)pyrrolidine-2-carboxylic acid] | 72 nM | 630 nM | 7100 nM | –
C[C@]1(COc2cc(F)c(C(=O)N3CCC[C@H]3C(=O)O)cc2C2CC2)CCN(c2cc(C(F)(F)F)c(Cl)cn2)C1 [Example 135, (S)-1-(4-(((S)-1-(5-chloro-4-(trifluoromethyl)pyridin-2-yl)-3-methylpyrrolidin-3-yl)methoxy)-5-cyclopropyl-2-fluorobenzoyl)pyrrolidine-2-carboxylic acid] | 390 nM | 2600 nM | – | ≥ 30000 nM
C[C@@]1(COc2cc(F)c(C(=O)N3CCC[C@H]3C(=O)O)cc2C2CC2)CCN(c2cc(C(F)(F)F)c(Cl)cn2)C1 [Example 136, (S)-1-(4-(((R)-1-(5-chloro-4-(trifluoromethyl)pyridin-2-yl)-3-methylpyrrolidin-3-yl)methoxy)-5-cyclopropyl-2-fluorobenzoyl)pyrrolidine-2-carboxylic acid] | 110 nM | 1100 nM | – | ≥ 30000 nM
O=C(O)[C@@H]1CCCN1C(=O)c1cc(C2CC2)c(OC2CN(C(c3ccccc3)c3ccccc3)C2)cc1F [Example 141, (S)-1-(4-(1-benzhydrylazetidin-3-yloxy)-5-cyclopropyl-2-fluorobenzoyl)pyrrolidine-2-carboxylic acid] | 490 nM | 6100 nM | – | ≥ 30000 nM
C[C@@H]1SCN(C(=O)c2cc(C3CC3)c(OCC34CC5CC(CC(C5)C3)C4)cc2F)[C@@H]1C(=O)O [Example 142a, (4R,5S)-3-[4-(1-adamantylmethoxy)-5-cyclopropyl-2-fluoro-benzoyl]-5-methyl-thiazolidine-4-carboxylic acid] | 250 nM | 1500 nM | 17000 nM | –
C[C@@H]1SCN(C(=O)c2cc(C3CC3)c(OCC34CC5CC(CC(C5)C3)C4)cc2F)[C@H]1C(=O)O [Example 142b, (4S,5S)-3-[4-(1-adamantylmethoxy)-5-cyclopropyl-2-fluoro-benzoyl]-5-methyl-thiazolidine-4-carboxylic acid] | 760 nM | 3000 nM | 15000 nM | –
O=C(O)[C@@H]1CS(=O)(=O)CN1C(=O)c1cc(C2CC2)c(OCC23CC4CC(CC(C4)C2)C3)cc1F [Example 143, (4R)-3-[4-(1-adamantylmethoxy)-5-cyclopropyl-2-fluoro-benzoyl]-1,1-dioxo-1,3-thiazolidine-4-carboxylic acid] | 170 nM | 1200 nM | 21000 nM | –
N#C[C@H]1C[C@@H](C(=O)O)N(C(=O)c2cc(C3CC3)c(OCC34CC5CC(CC(C5)C3)C4)cc2F)C1 [Example 144, (2S,4S)-1-[4-(1-adamantylmethoxy)-5-cyclopropyl-2-fluoro-benzoyl]-4-cyano-pyrrolidine-2-carboxylic acid] | 870 nM | 3500 nM | – | ≥ 30000 nM
O=C(O)[C@@H]1CC(F)(F)CN1C(=O)c1cc(C2CC2)c(OCC23CC4CC(CC(C4)C2)C3)cc1F [Example 145, (2S)-1-[4-(1-adamantylmethoxy)-5-cyclopropyl-2-fluoro-benzoyl]-4,4-difluoro-pyrrolidine-2-carboxylic acid] | 35 nM | 640 nM | 16000 nM | –
O=C(O)[C@@H]1[C@H]2CC[C@H](C2)N1C(=O)c1cc(C2CC2)c(OCC23CC4CC(CC(C4)C2)C3)cc1F [Example 146, (1S,2S,4R)-3-[4-(1-adamantylmethoxy)-5-cyclopropyl-2-fluoro-benzoyl]-3-azabicyclo[2.2.1]heptane-2-carboxylic acid] | 180 nM | 1500 nM | 8400 nM | –
CC1(C)CCC(C(=O)O)N1C(=O)c1cc(C2CC2)c(OCC23CC4CC(CC(C4)C2)C3)cc1F (stereo not drawn) [Example 147, 1-[4-(1-adamantylmethoxy)-5-cyclopropyl-2-fluoro-benzoyl]-5,5-dimethyl-pyrrolidine-2-carboxylic acid] | 260 nM | 2100 nM | 14000 nM | –
C[C@H]1C[C@@H](C(=O)O)N(C(=O)c2cc(C3CC3)c(OCC34CC5CC(CC(C5)C3)C4)cc2F)C1 [Example 148, (2S,4S)-1-[4-(1-adamantylmethoxy)-5-cyclopropyl-2-fluoro-benzoyl]-4-methyl-pyrrolidine-2-carboxylic acid] | 49 nM | 620 nM | 17000 nM | –
C[C@H]1CCN(C(=O)c2cc(C3CC3)c(OCC34CC5CC(CC(C5)C3)C4)cc2F)[C@@H]1C(=O)O [Example 149, (2S,3S)-1-[4-(1-adamantylmethoxy)-5-cyclopropyl-2-fluoro-benzoyl]-3-methyl-pyrrolidine-2-carboxylic acid] | 10 nM | 300 nM | 17000 nM | –
C[C@@H]1C[C@@H](C(=O)O)N(C(=O)c2cc(C3CC3)c(OCC34CC5CC(CC(C5)C3)C4)cc2F)C1 [Example 150, (2S,4R)-1-[4-(1-adamantylmethoxy)-5-cyclopropyl-2-fluoro-benzoyl]-4-methyl-pyrrolidine-2-carboxylic acid] | 85 nM | 1200 nM | 19000 nM | –
CC1(C)SCN(C(=O)c2cc(C3CC3)c(OCC34CC5CC(CC(C5)C3)C4)cc2F)[C@@H]1C(=O)O [Example 155, (4R)-3-[4-(1-adamantylmethoxy)-5-cyclopropyl-2-fluoro-benzoyl]-5,5-dimethyl-thiazolidine-4-carboxylic acid] | 68 nM | 900 nM | 9300 nM | –
C[C@@H](c1cc(Cl)cc(Cl)c1)N1CCC(COc2cc(F)c(C(=O)N3[C@@H]4C[C@@H]4C[C@H]3C(=O)O)cc2C2CC2)CC1 [Example 156, (1R,3S,5R)-4-[5-cyclopropyl-4-[[1-[(1S)-1-(3,5-dichlorophenyl)ethyl]-4-piperidyl]methoxy]-2-fluoro-benzoyl]-4-azabicyclo[3.1.0]hexane-3-carboxylic acid] | 830 nM | 3100 nM | 17000 nM | –
C[C@@H](c1cc(Cl)cc(Cl)c1)N1CCC(COc2cc(F)c(C(=O)N3CSC[C@H]3C(=O)O)cc2C2CC2)CC1 [Example 159, (4R)-3-[5-cyclopropyl-4-[[1-[(1S)-1-(3,5-dichlorophenyl)ethyl]-4-piperidyl]methoxy]-2-fluoro-benzoyl]thiazolidine-4-carboxylic acid] | 80 nM | 1000 nM | 17000 nM | –
O=C(O)[C@@H]1CC(F)(F)CN1C(=O)c1cc(C2CC2)c(OCC23CC4CC(CC(C4)C2)C3)cc1F [Example 160, (2S)-1-[4-(1-adamantylmethoxy)-5-cyclopropyl-2-fluoro-benzoyl]-4,4-difluoro-pyrrolidine-2-carboxylic acid] | 35 nM | 640 nM | 16000 nM | –
O=C(O)[C@@H]1C[C@H](O)CN1C(=O)c1cc(C2CC2)c(OCC23CC4CC(CC(C4)C2)C3)cc1F [Example 161, (2S,4S)-1-[4-(1-adamantylmethoxy)-5-cyclopropyl-2-fluoro-benzoyl]-4-hydroxy-pyrrolidine-2-carboxylic acid] | 390 nM | 980 nM | – | ≥ 30000 nM
C[C@H]1OCN(C(=O)c2cc(C3CC3)c(OCC34CC5CC(CC(C5)C3)C4)cc2F)[C@@H]1C(=O)O [Example 162, (4S,5R)-3-[4-(1-adamantylmethoxy)-5-cyclopropyl-2-fluoro-benzoyl]-5-methyl-oxazolidine-4-carboxylic acid] | 7.3 nM | 94 nM | 5700 nM | –
C[C@@H]1OCN(C(=O)c2cc(C3CC3)c(OCC34CC5CC(CC(C5)C3)C4)cc2F)[C@H]1C(=O)O [Example 163, (4R,5S)-3-[4-(1-adamantylmethoxy)-5-cyclopropyl-2-fluoro-benzoyl]-5-methyl-oxazolidine-4-carboxylic acid] | 120 nM | 820 nM | 4700 nM | –
C[C@H]1OCN(C(=O)c2cc(C3CC3)c(OCC3CCN([C@@H](C)c4cc(Cl)cc(Cl)c4)CC3)cc2F)[C@@H]1C(=O)O [Example 164, (4S,5R)-3-[5-cyclopropyl-4-[[1-[(1S)-1-(3,5-dichlorophenyl)ethyl]-4-piperidyl]methoxy]-2-fluoro-benzoyl]-5-methyl-oxazolidine-4-carboxylic acid] | 25 nM | 62 nM | 13000 nM | –
